For orientation: DC50 means the midpoint of the concentration-degradation curve. A high value points to degradation only at high concentration. As a reminder, the Dmax is the greatest extent of degradation seen. As a reminder, the IC50 is the concentration at which inhibition is half-maximal. Higher therefore signals weaker potency in that assay.

Common to all, as to type: cell-based
In one assay the target is Cyclin E1 (Homo sapiens, UniProt P24864+Q96SW2). The assay is described as follows: Cyclin E1 Cellular Degradation Assay (MSD). Also noted: endogenous in cells; host or cells: OVCAR3. To be noted: for DC50 / Dmax: Cyclin E1 cellular degradation; for Dmax: maximum degradation; for Ratio of GSPT1 DC50/Cyclin E1 DC50: selectivity for degradation of Cyclin E1 over GSPT1. Put shortly: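 OVCAR3 cells treated with compound for 24 h at 37 °C, lysed, and cyclin E1 measured by MSD sandwich immunoassay (rabbit capture, mouse detection anti-CCNE1). Reference degrader at […] defined 110% response; DC50 and Dmax derived from response.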
Sequence of Cyclin E1 (P24864 whole entry): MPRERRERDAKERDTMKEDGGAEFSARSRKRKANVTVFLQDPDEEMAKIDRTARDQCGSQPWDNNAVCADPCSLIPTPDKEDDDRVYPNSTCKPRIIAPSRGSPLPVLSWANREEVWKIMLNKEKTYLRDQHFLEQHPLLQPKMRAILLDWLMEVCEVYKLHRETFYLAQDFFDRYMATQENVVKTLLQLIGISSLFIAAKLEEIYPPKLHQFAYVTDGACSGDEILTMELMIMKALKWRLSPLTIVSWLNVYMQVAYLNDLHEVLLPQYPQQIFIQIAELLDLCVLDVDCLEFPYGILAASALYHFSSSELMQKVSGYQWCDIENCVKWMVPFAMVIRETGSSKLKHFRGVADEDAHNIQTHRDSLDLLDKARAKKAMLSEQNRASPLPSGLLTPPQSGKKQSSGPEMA
Sequence of Cyclin E1 (Q96SW2 whole entry): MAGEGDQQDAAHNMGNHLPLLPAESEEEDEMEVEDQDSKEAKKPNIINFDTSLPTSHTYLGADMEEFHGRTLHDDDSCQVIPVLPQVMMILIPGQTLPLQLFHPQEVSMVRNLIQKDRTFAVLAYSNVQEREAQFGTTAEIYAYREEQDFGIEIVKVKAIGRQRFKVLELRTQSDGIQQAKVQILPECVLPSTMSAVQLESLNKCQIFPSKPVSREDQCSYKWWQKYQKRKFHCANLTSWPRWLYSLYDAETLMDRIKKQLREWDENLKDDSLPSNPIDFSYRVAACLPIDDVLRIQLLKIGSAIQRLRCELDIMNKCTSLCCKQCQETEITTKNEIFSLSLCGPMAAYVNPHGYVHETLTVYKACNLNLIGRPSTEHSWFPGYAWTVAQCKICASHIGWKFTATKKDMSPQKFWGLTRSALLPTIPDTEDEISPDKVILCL
Sequence of Cyclin E1 (Q16531 whole entry partner): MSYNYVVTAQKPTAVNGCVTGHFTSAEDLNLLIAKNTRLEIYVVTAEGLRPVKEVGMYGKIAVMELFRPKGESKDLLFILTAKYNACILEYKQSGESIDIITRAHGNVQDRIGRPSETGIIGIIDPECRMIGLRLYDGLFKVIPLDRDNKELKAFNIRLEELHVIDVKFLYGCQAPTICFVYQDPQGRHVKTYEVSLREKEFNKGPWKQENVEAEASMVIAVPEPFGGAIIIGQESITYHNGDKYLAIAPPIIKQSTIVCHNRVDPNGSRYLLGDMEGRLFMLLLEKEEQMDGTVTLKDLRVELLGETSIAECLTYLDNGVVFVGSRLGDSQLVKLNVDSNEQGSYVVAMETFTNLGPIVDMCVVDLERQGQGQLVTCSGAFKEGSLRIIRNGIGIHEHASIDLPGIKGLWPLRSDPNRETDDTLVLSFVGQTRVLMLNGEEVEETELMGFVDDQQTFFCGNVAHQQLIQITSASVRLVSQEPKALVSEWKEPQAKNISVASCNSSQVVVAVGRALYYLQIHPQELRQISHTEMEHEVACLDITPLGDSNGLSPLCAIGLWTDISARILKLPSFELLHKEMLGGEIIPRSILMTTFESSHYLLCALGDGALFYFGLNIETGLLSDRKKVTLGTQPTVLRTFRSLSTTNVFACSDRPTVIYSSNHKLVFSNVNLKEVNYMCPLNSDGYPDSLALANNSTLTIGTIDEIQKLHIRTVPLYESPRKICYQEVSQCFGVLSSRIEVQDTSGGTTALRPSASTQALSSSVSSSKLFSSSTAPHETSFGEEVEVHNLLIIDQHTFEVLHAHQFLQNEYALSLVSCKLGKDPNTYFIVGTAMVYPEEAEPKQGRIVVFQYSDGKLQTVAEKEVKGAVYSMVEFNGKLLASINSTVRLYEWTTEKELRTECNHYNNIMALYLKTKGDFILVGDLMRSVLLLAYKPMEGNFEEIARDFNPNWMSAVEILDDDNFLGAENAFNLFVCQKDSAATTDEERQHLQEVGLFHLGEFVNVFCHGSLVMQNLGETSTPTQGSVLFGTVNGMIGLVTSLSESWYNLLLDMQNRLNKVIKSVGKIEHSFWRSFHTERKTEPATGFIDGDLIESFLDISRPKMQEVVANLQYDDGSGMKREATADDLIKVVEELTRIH

In another assay the target is GSPT1 (Homo sapiens, UniProt P15170+Q96SW2). The assay is described as follows: GSPT1 Cellular Degradation Assay (DF15-GSPT1-ePL). Details: expressed in transfected cells. To be noted: DF15-GSPT1-ePL cells, 20 hours. In short, it runs like this:
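Human DF15 cells co-expressing a GSPT1–ePL fusion were treated with compound in RPMI 1640/10% FBS for 20 h at 37 °C. GSPT1 level was read by enzyme-fragment-complementation luminescence after 60 min with detection reagent. The reference degrader at […] defined 75% response; DC50 and Dmax were reported.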

The next assay relates to Phospho-Rb (Ser807/811). As to the kind of experiment: Phospho-Retinoblastoma (pRB) Cellular Assay. To be noted: Homo sapiens, OVCAR-3, NIH OVCAR3 cells, 24 hours; for IC50: concentration giving 50% response; for Emax: maximum response, reference compound at 10 μM = 100%, read-out: pRB Ymax. Put shortly: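 OVCAR3 cells seeded overnight, then dosed with serial dilutions for 24 h at 37° C. Lysed with kit mix plus phosphatase inhibitor, ≥4 h at room temperature, read on EnVision; 100% response set by reference compound at 10 μM, giving IC50 and Ymax.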

Sequence of GSPT1 (P15170 whole entry, the tested form may be a part): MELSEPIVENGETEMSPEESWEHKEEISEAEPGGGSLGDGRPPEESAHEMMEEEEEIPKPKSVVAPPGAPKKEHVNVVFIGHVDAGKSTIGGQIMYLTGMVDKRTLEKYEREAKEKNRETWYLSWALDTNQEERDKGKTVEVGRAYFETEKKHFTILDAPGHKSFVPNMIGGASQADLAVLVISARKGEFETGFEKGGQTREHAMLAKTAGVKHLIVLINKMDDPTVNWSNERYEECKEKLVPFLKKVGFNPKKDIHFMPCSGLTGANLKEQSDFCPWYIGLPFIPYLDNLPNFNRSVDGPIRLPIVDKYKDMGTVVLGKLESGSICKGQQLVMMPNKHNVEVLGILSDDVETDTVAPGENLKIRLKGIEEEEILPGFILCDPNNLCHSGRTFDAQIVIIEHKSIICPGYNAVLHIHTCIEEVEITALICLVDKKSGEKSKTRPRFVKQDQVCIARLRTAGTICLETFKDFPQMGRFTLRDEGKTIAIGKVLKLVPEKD
Sequence of GSPT1 (Q96SW2 whole entry, the tested form may be a part): as the sequence (Q96SW2 whole entry) above
Sequence of GSPT1 (Q16531 whole entry partner, the tested form may be a part): as the sequence (Q16531 whole entry partner) above

Regarding `COc1c(COC(=O)Nc2ccc(Cc3cccc(F)c3)cc2F)ccc2c1C(=O)N(C1CCC(=O)NC1=O)C2` (stereo not drawn) [Example 20, [2-(2,6-dioxopiperidin-3-yl)-4-methoxy-3-oxo-2,3-dihydro-1H-isoindol-5-yl]methyl N-{2-fluoro-4-[(3-fluorophenyl)methyl]phenyl}carbamate], on Cyclin E1, the DC50 was 96 nM, the Dmax was 101% and the “Ratio of GSPT1 DC50/Cyclin E1 DC50” value was above 146. For the same molecule, at GSPT1, the DC50 is above 14000 nM and the Dmax came out at 11%. Further, in the assay with Phospho-Rb (Ser807/811), half-maximal inhibition (IC50) required 440 nM and the Emax came out at 103%.
Turning to `COc1c(COC(=O)Nc2ccc(Oc3cc(F)c(F)c(F)c3)cc2Cl)ccc2c1C(=O)N(C1CCC(=O)NC1=O)C2` (stereo not drawn) [Example 25, [2-(2,6-dioxopiperidin-3-yl)-4-methoxy-3-oxo-2,3-dihydro-1H-isoindol-5-yl]methyl N-[2-chloro-4-(3,4,5-trifluorophenoxy)phenyl]carbamate], on Cyclin E1, the DC50 came out at 184 nM, the Dmax was found to be 107% and the “Ratio of GSPT1 DC50/Cyclin E1 DC50” value is above 76. Moreover, on GSPT1, the DC50 is above 14000 nM and the Dmax is 37%. In addition, in the assay on Phospho-Rb (Ser807/811), the IC50 amounted to 187 nM and the Emax worked out at 96%.
Take `COc1c(COC(=O)Nc2ccc(C(C)(C)c3ccccc3)cc2)ccc2c1C(=O)N(C1CCC(=O)NC1=O)C2` (stereo not drawn) [Example 41, [2-(2,6-dioxopiperidin-3-yl)-4-methoxy-3-oxo-2,3-dihydro-1H-isoindol-5-yl]methyl N-[4-(2-phenylpropan-2-yl)phenyl]carbamate]: at Cyclin E1, the DC50 stood at 336 nM, the Dmax stood at 92% and the “Ratio of GSPT1 DC50/Cyclin E1 DC50” value was above 42. Also, at GSPT1, the DC50 was above 14000 nM and the Dmax was 13%. Moreover, in the assay with Phospho-Rb (Ser807/811), the IC50 was determined as 248 nM and the Emax amounted to 100%.
Consider `CCOc1c(COC(=O)Nc2ccc(Oc3cccc(Cl)c3)cc2)ccc2c1C(=O)N(C1CCC(=O)NC1=O)C2` (stereo not drawn) [Example 54, [2-(2,6-dioxopiperidin-3-yl)-4-ethoxy-3-oxo-2,3-dihydro-1H-isoindol-5-yl]methyl N-[4-(3-chlorophenoxy)phenyl]carbamate], for which, at Cyclin E1, the DC50 came to 58 nM, the Dmax was determined as 116% and the “Ratio of GSPT1 DC50/Cyclin E1 DC50” value is listed as above 241. Further, at GSPT1, the DC50 was above 14000 nM and the Dmax turned out to be 22%. For the same molecule, in the assay on Phospho-Rb (Ser807/811), 624 nM corresponded to half-maximal inhibition (IC50) and the Emax is 102%.
As to `COc1c(COC(=O)Nc2ccc(Oc3ccc(F)c(C)c3)cc2)ccc2c1C(=O)N(C1CCC(=O)NC1=O)C2` (stereo not drawn) [Example 96, [2-(2,6-dioxopiperidin-3-yl)-4-methoxy-3-oxo-2,3-dihydro-1H-isoindol-5-yl]methyl N-[4-(4-fluoro-3-methylphenoxy)phenyl]carbamate], on Cyclin E1, it took 129 nM to reach half-maximal degradation (DC50), the Dmax turned out to be 106% and the “Ratio of GSPT1 DC50/Cyclin E1 DC50” value is above 109. Besides, on GSPT1, the DC50 was above 14000 nM and the Dmax was found to be 27%. Further, in the assay with Phospho-Rb (Ser807/811), the IC50 came out at 100 nM and the Emax came to 117%.
For `COc1c(COC(=O)Nc2ccc(Oc3ccc(F)cc3)cc2)ccc2c1C(=O)N(C1CCC(=O)NC1=O)C2` (stereo not drawn) [Example 84, [2-(2,6-dioxopiperidin-3-yl)-4-methoxy-3-oxo-2,3-dihydro-1H-isoindol-5-yl]methyl N-[4-(4-fluorophenoxy)phenyl]carbamate], on Cyclin E1, it took 94 nM to reach half-maximal degradation (DC50), the Dmax stood at 108% and the “Ratio of GSPT1 DC50/Cyclin E1 DC50” value is listed as above 149. Besides, at GSPT1, the DC50 is above 14000 nM and the Dmax turned out to be 22%. In the assay with Phospho-Rb (Ser807/811), the IC50 came to 254 nM and the Emax was 95%.

(Values after patent US20250084056A1, “SUBSTITUTED OXOISOINDOLINYL PIPERIDINE-2,6-DIONE COMPOUNDS” (BRISTOL-MYERS SQUIBB COMPANY, priority 2023, published 2025).)
